Data taken from patent US9549967B2, “Regulation of sodium channels by PLUNC proteins” (The University of North Carolina at Chapel Hill, priority 2009, dated 2017).

What was measured:
Format in all cases: cell-based
[1] = molecular target: T1, CFTR (Homo sapiens, UniProt P13569); test: CFTR activity in Xenopus oocytes co-expressing CFTR and β2 adrenergic receptor; details: 10 μM isoproterenol, β2AR co-expressed
T1 construct: expressed in transfected cells; host or cells: Xenopus laevis oocytes
Procedure: (§1) Oocyte studies. Xenopus laevis oocytes were harvested and injected as described (Donaldson, et al., J. Biol. Chem. 277:8338 (2002)). Defolliculated healthy stage V-VI oocytes were injected with 0.3 ng of cRNA of each ENaC subunit. Injected oocytes were kept in modified Barth's saline (in mM: 88 NaCl, 1 KCl, 2.4 NaHCO3, 0.3 Ca(NO3)2, 0.41 CaCl2, 0.82 MgSO4, and 15 HEPES, adjusted to pH 7.35 with Tris). Oocytes were studied 24 hr after injection using the two electrode voltage clamp technique as previously described (Donaldson, et al., J. Biol. Chem. 277:8338 (2002)). Oocytes were clamped at a holding potential of […]. The change in amiloride-sensitive whole cell current as an indicator of ENaC activity was determined by subtracting the corresponding current value measured in the presence of 10 μM amiloride from that measured before the application of amiloride.
In both cases, we co-expressed CFTR with the β2 adrenergic receptor (β2AR) which can be stimulated with isoproterenol to raise cAMP and stimulate CFTR (Uezono et al., Receptors Channels 1:233 (1993)).

[2] = molecular target: T2, ENaC (Homo sapiens, UniProt P37088+P51168+P51170); test: Transepithelial voltage under thin film conditions in human bronchial epithelial cultures (microelectrode); details: n=12; FIG. 4 legend: 100 mM amiloride
T2 construct: endogenous in cells; host or cells: primary human bronchial epithelial cultures
T2 sequence (P37088 1-669): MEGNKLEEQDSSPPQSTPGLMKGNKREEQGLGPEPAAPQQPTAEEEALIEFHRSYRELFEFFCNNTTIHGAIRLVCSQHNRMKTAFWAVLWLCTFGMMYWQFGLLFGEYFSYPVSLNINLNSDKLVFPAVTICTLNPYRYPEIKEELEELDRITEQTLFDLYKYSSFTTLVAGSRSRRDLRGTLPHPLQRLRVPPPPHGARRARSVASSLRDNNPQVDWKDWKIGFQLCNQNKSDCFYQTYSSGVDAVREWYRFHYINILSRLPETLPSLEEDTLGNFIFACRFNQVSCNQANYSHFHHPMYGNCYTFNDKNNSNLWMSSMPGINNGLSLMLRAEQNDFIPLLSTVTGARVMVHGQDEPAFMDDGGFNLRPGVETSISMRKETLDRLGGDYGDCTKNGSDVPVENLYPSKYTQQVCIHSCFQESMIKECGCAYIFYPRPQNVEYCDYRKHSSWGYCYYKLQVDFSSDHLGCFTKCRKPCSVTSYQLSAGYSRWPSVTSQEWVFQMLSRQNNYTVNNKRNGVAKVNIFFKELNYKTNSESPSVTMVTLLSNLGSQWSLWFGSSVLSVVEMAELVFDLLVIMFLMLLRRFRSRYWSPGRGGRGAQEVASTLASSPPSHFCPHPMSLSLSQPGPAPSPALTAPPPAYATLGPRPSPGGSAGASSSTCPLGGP
T2 sequence (P51168 1-640): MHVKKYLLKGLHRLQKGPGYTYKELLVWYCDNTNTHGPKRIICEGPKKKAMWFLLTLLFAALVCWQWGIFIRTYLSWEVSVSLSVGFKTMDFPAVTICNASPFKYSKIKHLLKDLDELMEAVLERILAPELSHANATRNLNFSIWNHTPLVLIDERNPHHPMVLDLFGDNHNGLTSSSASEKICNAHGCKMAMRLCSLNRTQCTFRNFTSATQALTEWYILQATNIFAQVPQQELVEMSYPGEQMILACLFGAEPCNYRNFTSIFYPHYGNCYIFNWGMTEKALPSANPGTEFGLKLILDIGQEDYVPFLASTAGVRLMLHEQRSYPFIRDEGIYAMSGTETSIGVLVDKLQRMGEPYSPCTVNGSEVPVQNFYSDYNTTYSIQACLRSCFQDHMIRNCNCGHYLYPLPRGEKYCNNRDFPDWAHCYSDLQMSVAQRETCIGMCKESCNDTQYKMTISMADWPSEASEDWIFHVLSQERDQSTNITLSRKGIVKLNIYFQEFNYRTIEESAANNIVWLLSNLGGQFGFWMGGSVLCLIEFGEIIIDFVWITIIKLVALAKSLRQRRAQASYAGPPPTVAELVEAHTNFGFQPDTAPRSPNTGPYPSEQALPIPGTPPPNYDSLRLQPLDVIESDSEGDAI
T2 sequence (P51170 1-649): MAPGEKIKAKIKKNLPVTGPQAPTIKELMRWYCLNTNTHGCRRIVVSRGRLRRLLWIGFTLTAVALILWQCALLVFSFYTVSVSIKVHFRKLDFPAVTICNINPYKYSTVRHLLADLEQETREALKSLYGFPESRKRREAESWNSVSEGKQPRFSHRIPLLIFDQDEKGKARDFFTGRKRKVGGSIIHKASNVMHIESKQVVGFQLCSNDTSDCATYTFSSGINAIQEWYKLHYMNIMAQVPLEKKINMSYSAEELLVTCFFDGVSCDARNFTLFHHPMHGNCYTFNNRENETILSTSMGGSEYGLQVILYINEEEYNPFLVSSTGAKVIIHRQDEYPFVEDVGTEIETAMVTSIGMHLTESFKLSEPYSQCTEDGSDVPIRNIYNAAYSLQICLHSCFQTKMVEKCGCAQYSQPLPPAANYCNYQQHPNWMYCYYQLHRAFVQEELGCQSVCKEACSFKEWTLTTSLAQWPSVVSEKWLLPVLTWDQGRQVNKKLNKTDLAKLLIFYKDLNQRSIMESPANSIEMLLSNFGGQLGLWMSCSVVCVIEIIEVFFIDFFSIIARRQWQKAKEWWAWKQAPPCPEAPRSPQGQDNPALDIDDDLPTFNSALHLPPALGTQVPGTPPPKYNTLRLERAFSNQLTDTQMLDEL
Text: (§2) Tissue procurement and cell culture: Cells were harvested by enzymatic digestion from human bronchial tissue as previously described under a protocol approved by the UNC School of Medicine IRB (Tarran et al., J. Gen. Physiol. 127:591 (2006)). Human excess donor lungs and excised recipient lungs were obtained at the time of lung transplantation from portions of main stem or […] bronchi and cells were harvested by enzymatic digestion. All preparations were maintained at an air-liquid interface in a modified bronchial epithelial medium and used 2-5 weeks after seeding on 12 mm T-Clear inserts (Corning Costar) coated with human placental type VI collagen (Sigma). Phosphate buffered saline (PBS) was used for washing human bronchial epithelial culture mucosal surfaces.
(§3) Microelectrode studies. A single-barreled potential difference-sensing electrode was placed in the airway surface liquid by micromanipulator and used in conjunction with a macroelectrode in the serosal solution to measure transepithelial voltage using a voltmeter (World Precision Instruments). […] Transepithelial resistance was routinely measured using the EVOM system (WPI) as previously described (Tarran et al., J. Gen. Physiol. 127:591 (2006)).

[3] = molecular target: T2, ENaC; test: Transepithelial electrical resistance of human bronchial epithelial cultures (EVOM); details: washed cultures; 50 ng/ml SPLUNC1 for 30 min or amiloride; effects not additive
Text: as §2, §3

[4] = molecular target: T3, αβγENaC (Rattus norvegicus, UniProt P37089+P37090+P37091); test: Amiloride-sensitive whole cell current in Xenopus laevis oocytes expressing ENaC (two electrode voltage clamp); details: co-expression with α,β,γ ENaC in oocytes, FIG. 13
T3 construct: expressed in transfected cells; host or cells: Xenopus laevis oocytes (cRNA injection)
T3 sequence (P37089 1-698): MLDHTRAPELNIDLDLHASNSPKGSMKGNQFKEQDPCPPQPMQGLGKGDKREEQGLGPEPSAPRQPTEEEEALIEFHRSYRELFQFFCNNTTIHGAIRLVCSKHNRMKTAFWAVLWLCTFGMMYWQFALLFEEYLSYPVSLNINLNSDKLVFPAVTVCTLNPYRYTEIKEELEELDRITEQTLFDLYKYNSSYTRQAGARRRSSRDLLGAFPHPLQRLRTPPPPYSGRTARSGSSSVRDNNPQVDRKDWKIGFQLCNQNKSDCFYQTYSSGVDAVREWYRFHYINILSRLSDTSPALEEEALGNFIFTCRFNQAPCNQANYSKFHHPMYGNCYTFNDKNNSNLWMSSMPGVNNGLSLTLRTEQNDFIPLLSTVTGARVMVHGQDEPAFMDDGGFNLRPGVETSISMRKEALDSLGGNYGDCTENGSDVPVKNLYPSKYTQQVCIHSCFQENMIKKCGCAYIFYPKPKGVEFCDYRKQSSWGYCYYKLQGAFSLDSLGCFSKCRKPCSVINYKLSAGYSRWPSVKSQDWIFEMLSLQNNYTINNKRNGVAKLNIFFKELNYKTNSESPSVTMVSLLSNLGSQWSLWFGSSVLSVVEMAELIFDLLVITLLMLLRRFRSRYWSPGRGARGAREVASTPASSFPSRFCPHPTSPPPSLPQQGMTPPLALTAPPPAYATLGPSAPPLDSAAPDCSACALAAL
T3 sequence (P37090 1-638): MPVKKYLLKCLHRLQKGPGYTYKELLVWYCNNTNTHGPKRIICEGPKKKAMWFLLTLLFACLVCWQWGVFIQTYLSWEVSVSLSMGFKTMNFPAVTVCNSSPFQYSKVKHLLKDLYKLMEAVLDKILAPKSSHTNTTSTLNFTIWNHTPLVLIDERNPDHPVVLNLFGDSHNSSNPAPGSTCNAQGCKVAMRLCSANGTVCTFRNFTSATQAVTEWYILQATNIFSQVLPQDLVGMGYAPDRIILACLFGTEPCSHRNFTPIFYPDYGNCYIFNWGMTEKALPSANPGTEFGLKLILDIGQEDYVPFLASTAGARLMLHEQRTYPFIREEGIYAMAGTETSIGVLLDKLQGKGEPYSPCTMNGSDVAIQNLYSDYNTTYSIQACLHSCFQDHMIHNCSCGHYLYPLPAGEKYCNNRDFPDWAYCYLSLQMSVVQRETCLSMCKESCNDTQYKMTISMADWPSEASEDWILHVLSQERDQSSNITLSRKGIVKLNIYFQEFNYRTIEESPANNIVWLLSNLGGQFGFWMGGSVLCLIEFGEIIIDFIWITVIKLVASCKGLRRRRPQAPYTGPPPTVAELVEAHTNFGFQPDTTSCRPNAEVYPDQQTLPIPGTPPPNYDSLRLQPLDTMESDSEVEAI
T3 sequence (P37091 1-650): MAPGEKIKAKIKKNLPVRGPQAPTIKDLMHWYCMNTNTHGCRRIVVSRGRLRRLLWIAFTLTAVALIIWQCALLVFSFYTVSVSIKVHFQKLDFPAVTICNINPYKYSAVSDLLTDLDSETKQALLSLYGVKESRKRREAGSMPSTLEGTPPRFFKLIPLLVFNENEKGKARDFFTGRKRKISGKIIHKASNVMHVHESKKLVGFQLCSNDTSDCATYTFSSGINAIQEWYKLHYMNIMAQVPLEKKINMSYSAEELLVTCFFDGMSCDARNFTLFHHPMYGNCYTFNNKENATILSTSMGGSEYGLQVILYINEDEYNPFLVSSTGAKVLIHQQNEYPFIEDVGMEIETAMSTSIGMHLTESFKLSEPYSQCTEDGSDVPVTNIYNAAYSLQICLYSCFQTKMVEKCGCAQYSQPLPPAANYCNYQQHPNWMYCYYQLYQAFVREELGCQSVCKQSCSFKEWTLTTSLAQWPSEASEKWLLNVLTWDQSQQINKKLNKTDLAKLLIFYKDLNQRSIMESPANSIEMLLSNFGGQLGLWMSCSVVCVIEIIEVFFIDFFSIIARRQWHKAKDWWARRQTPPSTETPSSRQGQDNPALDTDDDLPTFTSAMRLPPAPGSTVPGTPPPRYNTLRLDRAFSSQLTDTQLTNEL
Procedure: as §1

T1 sequence (P13569 whole entry, species assumed): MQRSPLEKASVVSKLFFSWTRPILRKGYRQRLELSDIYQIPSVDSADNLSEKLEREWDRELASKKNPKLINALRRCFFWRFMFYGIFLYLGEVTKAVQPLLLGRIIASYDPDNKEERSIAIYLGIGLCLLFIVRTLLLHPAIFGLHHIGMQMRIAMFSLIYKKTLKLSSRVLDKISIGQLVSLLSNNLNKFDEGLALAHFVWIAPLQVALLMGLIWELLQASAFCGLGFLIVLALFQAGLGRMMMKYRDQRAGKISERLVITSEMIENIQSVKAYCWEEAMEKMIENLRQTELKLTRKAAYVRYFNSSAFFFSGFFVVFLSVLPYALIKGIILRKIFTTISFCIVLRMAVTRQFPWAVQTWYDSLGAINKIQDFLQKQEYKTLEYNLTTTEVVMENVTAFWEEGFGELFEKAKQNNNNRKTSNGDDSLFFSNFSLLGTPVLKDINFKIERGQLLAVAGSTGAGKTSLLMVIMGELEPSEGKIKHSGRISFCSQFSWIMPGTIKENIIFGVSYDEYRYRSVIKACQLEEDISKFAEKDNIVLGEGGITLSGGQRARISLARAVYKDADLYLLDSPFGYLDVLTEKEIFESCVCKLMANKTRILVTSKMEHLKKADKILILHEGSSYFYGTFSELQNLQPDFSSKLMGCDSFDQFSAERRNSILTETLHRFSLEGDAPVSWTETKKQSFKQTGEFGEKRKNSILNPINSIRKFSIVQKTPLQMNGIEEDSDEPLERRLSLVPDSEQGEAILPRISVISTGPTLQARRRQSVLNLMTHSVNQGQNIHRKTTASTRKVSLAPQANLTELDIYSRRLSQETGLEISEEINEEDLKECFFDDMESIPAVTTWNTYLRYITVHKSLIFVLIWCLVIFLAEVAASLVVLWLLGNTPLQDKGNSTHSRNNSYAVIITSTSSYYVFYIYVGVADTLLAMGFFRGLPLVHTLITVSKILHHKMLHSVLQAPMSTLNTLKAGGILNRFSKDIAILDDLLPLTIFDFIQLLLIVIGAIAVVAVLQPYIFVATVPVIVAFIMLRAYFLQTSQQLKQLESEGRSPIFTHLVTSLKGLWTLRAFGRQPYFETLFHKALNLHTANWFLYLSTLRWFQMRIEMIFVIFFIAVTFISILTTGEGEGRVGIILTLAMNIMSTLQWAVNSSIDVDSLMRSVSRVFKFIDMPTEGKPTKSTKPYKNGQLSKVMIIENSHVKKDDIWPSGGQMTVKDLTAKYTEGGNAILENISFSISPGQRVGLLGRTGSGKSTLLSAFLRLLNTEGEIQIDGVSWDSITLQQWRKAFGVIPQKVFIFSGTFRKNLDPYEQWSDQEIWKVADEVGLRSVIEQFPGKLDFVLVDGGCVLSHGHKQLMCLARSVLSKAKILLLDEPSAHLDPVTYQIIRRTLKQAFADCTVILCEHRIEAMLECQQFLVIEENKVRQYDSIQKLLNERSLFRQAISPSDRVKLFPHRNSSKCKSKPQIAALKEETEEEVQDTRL

Molecule: CC(C)NCC(O)c1ccc(O)c(O)c1 (centres unmarked) [isoproterenol, reference compound]
- CFTR activation [1]: robustly activated

Molecule: N=C(N)NC(=O)c1nc(Cl)c(N)nc1N [amiloride, reference compound]
- reduction of the transepithelial voltage [2]: 54%
- increase of the transepithelial electrical resistance [3]: ~33%

B1: SPLUNC2: human SPLUNC2 protein (SEQ ID NO:2), co-expressed in oocytes (protein, listed as Homo sapiens)
chain: MLQLWKLVLLCGVLTGTSESLLDNLGNDLSNVVDKLEPVLHEGLETVDNTLKGILEKLKVDLGVLQKSSAWQLAKQKAQEAEKLLNNVISKLLPTNTDIFGLKISNSLILDVKAEPIDDGKGLNLSFPVTANVTVAGPIIGQIINLKASLDLLTAVTIETDPQTHQPVAVLGECASDPTSISLSLLDKHSQIINKFVNSVINTLKSTVSSLLQKEICPLIRIFIHSLDVNVIQQVVDNPQHKTQLQTLI
- reduction of amiloride-sensitive ENaC current relative to CTRL (significance) [4]: borderline significance

B2: LPLUNC1: long PLUNC family member co-expressed in oocytes (protein)
chain: TLSPTAVLILGPKVIKEKLTQELKDHNATSILQQLPLLSAMREKPAGGIPVLGSLVNTVLKHIIWLKVITANILQLQVKPSANDQELLVKIPLDMVAGFNTPLVKTIVEFHMTTEAQATIRMDTSASGPTRLVLSDCATSHGSLRIQLLHKLSFLVNALAKQVMNLLVPSLPNLVKNQLCPVIEASFNGMYADLLQLVKVPISLSIDRLEFDLLYPAIKGDTIQLYLGAKLLDSQGKVTKWFNNSAASLTMPTLDNIPFSLIVSQDVVKAAVAAVLSPEEFMVLLDSVLPESAHRLKSSIGLINEKAADKLGSTQIVKILTQDTPEFFIDQGHAKVAQLIVLEVFPSSEALRPLFTLGIEASSEAQFYTKGDQLILNLNNISSDRIQLMNSGIGWFQPDVLKNIITEIIHSILLPNQNGKLRSGVPVSLVKALGFEAAESSLTKDALVLTPASLWKPSSPVSQ
- reduction of amiloride-sensitive ENaC current relative to CTRL (significance) [4]: no significant ENaC current reduction
